According to patent publication EP0672658B1, “Antithrombotic agents” (priority 1994, dated 1995):
Counter-ions that a name gives are not always drawn.

Tests used:
[1] = Coagulation parameters in plasma of treated rats (TT, APTT, prothrombin time); type: in vivo, rat; conditions: for plasma thrombin time prolonged: during infusion reducing thrombus weight to approximately 20% of control in the Arterio-Venous shunt model
[2] = Arterio-Venous shunt model; type: in vivo, rats; conditions: continuous intravenous infusion; for thrombus weight: both compounds to the same extent
Description: […]. Blood circulated through the shunt for 15 minutes before the thread is carefully removed and weighed. The weight of a wet thread is subtracted from the total weight of the thread and thrombus (see J.R. Smith, Br. J. Pharmacol., 77,29 (1982)).

t-PA = t-PA (Homo sapiens, UniProt P00750); test: biochemical; conditions: read-out: Kass t-PA (converted)
Chain of t-PA (P00750 36-562): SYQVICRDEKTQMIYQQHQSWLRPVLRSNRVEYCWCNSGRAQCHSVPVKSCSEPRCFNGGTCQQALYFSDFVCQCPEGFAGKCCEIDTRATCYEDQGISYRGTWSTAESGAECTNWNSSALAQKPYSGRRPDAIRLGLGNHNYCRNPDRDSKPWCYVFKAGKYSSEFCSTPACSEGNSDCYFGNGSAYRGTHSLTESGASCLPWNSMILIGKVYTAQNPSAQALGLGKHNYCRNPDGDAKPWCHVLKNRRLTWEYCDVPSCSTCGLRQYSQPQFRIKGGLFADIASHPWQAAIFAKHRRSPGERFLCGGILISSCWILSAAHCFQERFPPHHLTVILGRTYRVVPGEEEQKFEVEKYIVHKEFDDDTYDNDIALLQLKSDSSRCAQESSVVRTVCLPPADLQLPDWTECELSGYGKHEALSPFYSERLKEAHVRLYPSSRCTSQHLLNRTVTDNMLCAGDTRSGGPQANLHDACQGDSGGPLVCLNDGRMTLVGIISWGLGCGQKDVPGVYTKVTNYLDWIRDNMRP
Summary of the method: (§1)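 Amidase activity of human plasmin and t-PA (nt-PA single-chain; mt-PA6) was measured by a chromogenic method adapted from a thrombin assay. Substrates were H-D-Val-Leu-Lys-p-nitroanilide for plasmin and H-D-Ile-Pro-Arg-p-nitroanilide for t-PA.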

Plasmin = molecular target: T1, Plasmin (Homo sapiens, UniProt P00747); test: biochemical; conditions: read-out: Kass Plasmin (converted)
T1 construct: Human plasmin is purchased; purchased Boehringer Mannheim, Indianapolis, Indiana
T1 sequence (P00747 581-810 limits assumed): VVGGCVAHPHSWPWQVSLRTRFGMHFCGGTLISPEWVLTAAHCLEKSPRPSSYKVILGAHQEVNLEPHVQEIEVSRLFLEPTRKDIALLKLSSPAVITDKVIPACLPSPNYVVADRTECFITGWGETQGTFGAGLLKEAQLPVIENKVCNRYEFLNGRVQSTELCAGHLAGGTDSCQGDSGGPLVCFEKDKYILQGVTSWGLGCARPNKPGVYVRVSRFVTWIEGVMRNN
T1 sequence (P00747 97-580 partner limits assumed): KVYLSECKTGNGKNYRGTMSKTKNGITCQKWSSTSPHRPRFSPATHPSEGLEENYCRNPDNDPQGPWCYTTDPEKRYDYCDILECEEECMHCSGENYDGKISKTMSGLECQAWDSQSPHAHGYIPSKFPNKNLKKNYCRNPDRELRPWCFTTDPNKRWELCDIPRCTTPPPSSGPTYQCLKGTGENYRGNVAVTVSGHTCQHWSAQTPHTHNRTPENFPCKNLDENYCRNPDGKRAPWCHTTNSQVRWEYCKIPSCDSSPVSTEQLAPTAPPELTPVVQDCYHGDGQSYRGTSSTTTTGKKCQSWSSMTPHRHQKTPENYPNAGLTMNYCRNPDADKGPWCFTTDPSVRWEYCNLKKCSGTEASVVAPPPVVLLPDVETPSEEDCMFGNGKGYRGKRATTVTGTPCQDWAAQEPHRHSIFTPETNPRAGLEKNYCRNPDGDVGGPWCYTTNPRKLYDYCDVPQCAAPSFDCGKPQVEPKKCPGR
Summary of the method: as §1

human or animal plasma [3] = test: Anticoagulation determination in plasma: thrombin time (TT); type: biochemical; conditions: concentration doubling thrombin time
Summary of the method: (§2)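 Compounds spiked over a concentration range into citrated human, dog or rat plasma. PT used Thromboplastin-C; APTT used Actin reagent 120 s then 0.02 M CaCl2; TT used bovine thrombin 10 NIH units/mL. Concentration doubling clotting time estimated by linear extrapolation.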

factor Xa = factor Xa (Homo sapiens, UniProt P00742); test: biochemical; conditions: read-out: Kass Xa (converted)
Chain of factor Xa (P00742 235-488 limits assumed): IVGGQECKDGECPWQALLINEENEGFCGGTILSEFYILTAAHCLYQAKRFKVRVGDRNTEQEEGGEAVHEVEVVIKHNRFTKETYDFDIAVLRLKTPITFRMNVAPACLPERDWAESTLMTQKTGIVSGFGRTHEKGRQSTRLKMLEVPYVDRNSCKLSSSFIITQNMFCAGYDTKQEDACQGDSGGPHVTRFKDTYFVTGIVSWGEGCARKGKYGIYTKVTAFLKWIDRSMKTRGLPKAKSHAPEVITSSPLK
Chain of factor Xa (P00742 41-179 partner limits assumed): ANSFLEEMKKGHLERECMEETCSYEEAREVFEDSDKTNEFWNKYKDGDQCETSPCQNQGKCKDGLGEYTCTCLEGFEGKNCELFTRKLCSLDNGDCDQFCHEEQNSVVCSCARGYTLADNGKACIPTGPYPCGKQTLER
Summary of the method: (§3)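 Bovine trypsin and human factor Xa amidase activity measured chromogenically, following the human thrombin procedure. Substrates: N-Benzoyl-Ile-Glu-Gly-Arg-p-nitroanilide for factor Xa and N-Benzoyl-Phe-Val-Arg-p-nitroanilide for trypsin. Used for selectivity profiling.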

Trypsin = molecular target: T2, Trypsin (Bos taurus, UniProt P00760); test: biochemical; set-up: species or system Bovine; conditions: read-out: Kass Trypsin (converted)
T2 sequence (P00760 24-246): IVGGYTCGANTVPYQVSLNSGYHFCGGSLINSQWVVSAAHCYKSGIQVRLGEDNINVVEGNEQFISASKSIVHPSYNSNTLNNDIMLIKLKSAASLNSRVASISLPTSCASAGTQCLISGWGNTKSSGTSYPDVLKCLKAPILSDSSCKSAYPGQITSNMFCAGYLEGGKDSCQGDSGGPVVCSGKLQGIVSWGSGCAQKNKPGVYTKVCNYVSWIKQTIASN
Summary of the method: as §3

in vivo = test: in vivo; set-up: species or system rats; conditions: for bioavailability: plasma, rat, oral vs i.v.; for % oral/i.v. activity (Rat): screening not completed, activity after p.o. dose given in the legend
Text: Each sample population represented alternating sequential time points.

Human Thrombin = Human Thrombin (Homo sapiens, UniProt P00734); test: biochemical; conditions: read-out: Kass Human Thrombin (converted)
human or animal plasma [4] = test: Anticoagulation determination in plasma: prothrombin time (PT); type: biochemical; conditions: concentration doubling prothrombin time
Summary of the method: as §2

human or animal plasma [5] = test: Anticoagulation determination in plasma: activated partial thromboplastin time (APTT); type: biochemical; conditions: concentration doubling activated partial thromboplastin time
Summary of the method: as §2

[6] = during infusion in the Arterio-Venous shunt model
Throughout, for % oral/i.v. activity (Rat): key: NC^1 indicates screening not completed; low or very low activity obsrved at 20 mg/kg p.o; NC^2 indicates screening not completed; low or very low activity observed at 60 mg/kg p.o; NC^3 indicates screening not completed; low or very low activity observed at 50 mg/kg p.o.

Row | SMILES | Kd (t-PA) | Kd (Plasmin) | Kd (factor Xa) | Kd (Trypsin) | Kd (Human Thrombin) | % oral/i.v. activity (Rat) (in vivo) | plasma thrombin time prolonged [1] | thrombus weight [2] | Human Plasma Anticoagulation 2x Clotting time (ng/mL) TT (human or animal plasma [3]) | bioavailability (in vivo) | Human Plasma Anticoagulation 2x Clotting time (ng/mL) PT (human or animal plasma [4]) | Human Plasma Anticoagulation 2x Clotting time (ng/mL) APTT (human or animal plasma [5]) | APTT extended [1, 6] | Prothrombin time extended [1, 6] | antithrombotic potency compared with D-MePhe-Pro-Arg-H ([2]; greater than D-MePhe-Pro-Arg-H)
1 | CN[C@H](Cc1ccccc1)C(=O)N1CCC[C@H]1C(=O)N[C@H](C=O)CCCNC(=N)N [D-MePhe-Pro-Arg-H, reference compound] |  |  |  |  |  |  | greater than 20 fold | approximately 20 % of control |  |  |  |  |  |  | 
2 | CCS(=O)(=O)N[C@H](Cc1ccccc1)C(=O)N1CCC[C@H]1C(=O)NCCCCNC(=N)N [Example 1, EtS02-D-Phe-Pro-Agm·HCl] | 12.2 µM | 100 µM | 588 µM | 2.63 µM | 0.303 µM |  |  |  | 250 ng/mL | 8% |  |  |  |  | 
3 | N=C(N)c1ccc(CNC(=O)[C@@H]2C[C@@H]3CCCC[C@@H]3N2C(=O)[C@H]2CCCCN2)cc1 [Example 20, D-hPro-Ohi-p-NHCH2C6H4C(NH)NH2·3HCl] | 130 µM | 10 µM | 10 µM | 0.0526 µM | 0.1 µM |  |  |  | 62 ng/mL | 23% | 600 ng/mL | 550 ng/mL |  |  | 
4 | CCS(=O)(=O)N[C@H](Cc1ccccc1)C(=O)N1CCC[C@H]1C(=O)NCCc1ccc(C(=N)N)cc1 [Example 26, EtSO2-D-Phe-Pro-p-NHCH2CH2-C6H4C(=NH)NH2·HCl] | 100 µM | 100 µM | 100 µM | 4.76 µM | 0.0769 µM | NC^1 |  |  | 37 ng/mL |  | 750 ng/mL | 870 ng/mL |  |  | 
5 | N=C(N)c1ccc(CNC(=O)[C@@H]2C[C@@H]3CCCC[C@@H]3N2C(=O)[C@@H]2NCC[C@@H]3CCCC[C@@H]32)cc1 [Example 42, D-1-Piq-cis-Ohi-p-NHCH2C6H4C(NH)NH2·2HCl] | 100 µM | 8.33 µM | 14.3 µM | 0.0233 µM | 0.0263 µM | NC^2 |  |  | 20 ng/mL |  | 320 ng/mL | 270 ng/mL |  |  | 
6 | CCS(=O)(=O)N[C@H](Cc1ccccc1)C(=O)N1[C@H](C(=O)NCc2ccc(C(=N)N)cc2)C[C@@H]2CCCC[C@@H]21 [Example 45, EtSO2-Phe-cis-Ohi-p-NHCH2C6H4C(NH)NH2·HCl] | 1.3 µM | 0.909 µM | 0.667 µM | 0.00909 µM | 0.00164 µM | NC^2 |  |  | 8 ng/mL |  | 330 ng/mL | 200 ng/mL |  |  | 
7 | N=C(N)c1ccc(CNC(=O)[C@@H]2C[C@@H]3CCCC[C@@H]3N2C(=O)[C@@H](Cc2ccccc2)NCC(=O)O)cc1 [Example 47, HOOCCH2-D-Phe-cis-Ohi-p-NHCH2C6H4C(NH)NH2·HCl] | 100 µM | 5.56 µM | 25 µM | 0.0122 µM | 0.0222 µM | NC^2 |  |  | 12. ng/mL |  | 270 ng/mL | 140 ng/mL |  |  | 

Further lines, with some results ahead:

Row | Kd (t-PA) | Kd (Plasmin) | Kd (factor Xa) | Kd (Trypsin) | Kd (Human Thrombin) | % oral/i.v. activity (Rat) (in vivo) | SMILES | plasma thrombin time prolonged [1] | thrombus weight [2] | Human Plasma Anticoagulation 2x Clotting time (ng/mL) TT (human or animal plasma [3]) | bioavailability (in vivo) | Human Plasma Anticoagulation 2x Clotting time (ng/mL) PT (human or animal plasma [4]) | Human Plasma Anticoagulation 2x Clotting time (ng/mL) APTT (human or animal plasma [5]) | APTT extended [1, 6] | Prothrombin time extended [1, 6] | antithrombotic potency compared with D-MePhe-Pro-Arg-H ([2]; greater than D-MePhe-Pro-Arg-H)
8 | 20 µM | 2.33 µM | 0.182 µM | 0.004 µM | 0.000244 µM |  | N=C(N)c1ccc(CNC(=O)[C@@H]2CCCN2C(=O)[C@@H](CC2CCCCC2)NCC(=O)O)cc1 [Example 48, HOOCCH2-D-Cha-Pro-p-NHCH2C6H4C(NH)NH2·HCl] | about 3 fold | approximately 20 % of control | 2. ng/mL |  | 59 ng/mL | 33 ng/mL | about 120 % of control | about 120 % of control | 9 fold
9 | 25 µM | 1.19 µM | 0.294 µM | 0.00106 µM | 0.0025 µM | NC^2 | N=C(N)c1ccc(CNC(=O)[C@@H]2C[C@@H]3CCCC[C@@H]3N2C(=O)[C@@H](CC2CCCCC2)NCC(=O)O)cc1 [Example 49, HOOCCH2-D-Cha-cis-Ohi-p-NHCH2C6H4C(NH)NH2·HCl] |  |  | 5 ng/mL |  | 130 ng/mL | 130 ng/mL |  |  | 
10 | > 1000 µM | > 1000 µM | > 1000 µM | 4.76 µM | 0.909 µM |  | O=C(O)CN[C@H](CC1CCCCC1)C(=O)N1CCC[C@H]1C(=O)NCCC1=CCNCC1 [Example 59, HO2CCH2-D-Cha-Pro-4-NHCH2CH2-3,4-dehydro-piperidine·HCl] |  |  | 420 ng/mL |  | 7,000 ng/mL | 5,500 ng/mL |  |  | 
11 | > 1000 µM | > 1000 µM | > 1000 µM | 33.3 µM | 4.17 µM |  | O=C(O)CN[C@H](CC1CCCCC1)C(=O)N1CCC[C@H]1C(=O)NCCCC1=CCNCC1 [Example 60, HO2CCH2-D-Cha-Pro-4-NHCH2CH2CH2-3,4-dehydro-piperidine·HCl] |  |  | 3,200 ng/mL |  | 77,700 ng/mL | 22,200 ng/mL |  |  | 
12 | 125 µM | 250 µM | 33.3 µM | 1 µM | 0.0159 µM |  | N=C(N)NCCCCNC(=O)[C@@H]1CCCN1C(=O)[C@@H]1NCC[C@H]2CCCC[C@H]21 [Example 61, N-[4-[(aminoiminomethyl)amino]butyl]-1-[[(4aR,8aR)-decahydro-1(R)-isoquinolinyl]carbonyl]-1-prolinamide trihydrochloride] |  |  | 45 ng/mL |  | 756 ng/mL | 679 ng/mL |  |  | 
13 |  |  | 100 µM |  | 0.0667 µM | NC^3 | Nc1ccc(CNC(=O)[C@@H]2CCCN2C(=O)[C@@H](CC2CCCCC2)NCC(=O)O)c(F)c1 [Example 64, HO2CCH2-D-Cha-Pro-4-NHCH2-3-F-C6H3NH2·HCl] |  |  | 23 ng/mL |  | 650 ng/mL | 900 ng/mL |  |  | 
14 |  |  |  | 0.00417 µM | 0.000714 µM | NC^1 | N=C(N)c1ccc(CNC(=O)[C@@H]2CCCN2C(=O)[C@@H](CC2CCCCC2)NCC(=O)O)c(F)c1 [Example 71, HO2CCH2-D-Cha-Pro-4-NHCH2-3-F-benzamidine·HCl] |  |  | 1 ng/mL |  | 150 ng/mL | 89 ng/mL |  |  | 
15 |  |  |  | 0.00357 µM | 0.000435 µM | NC^1 | N=C(N)c1cc(F)c(CNC(=O)[C@@H]2CCCN2C(=O)[C@@H](CC2CCCCC2)NCC(=O)O)c(F)c1 [Example 72, HO2CCH2-D-Cha-Pro-4-NHCH2-3,5-F2-benzamidine·HCl] |  |  | 1 ng/mL |  | 160 ng/mL | 160 ng/mL |  |  | 
